Molecules are shown by their SMILES. Bounds are passed on as bounds.

In assay [1] the target is T1, Myelin-associated glycoprotein (Mus musculus) (UniProt P20917).
T1 sequence (whole entry): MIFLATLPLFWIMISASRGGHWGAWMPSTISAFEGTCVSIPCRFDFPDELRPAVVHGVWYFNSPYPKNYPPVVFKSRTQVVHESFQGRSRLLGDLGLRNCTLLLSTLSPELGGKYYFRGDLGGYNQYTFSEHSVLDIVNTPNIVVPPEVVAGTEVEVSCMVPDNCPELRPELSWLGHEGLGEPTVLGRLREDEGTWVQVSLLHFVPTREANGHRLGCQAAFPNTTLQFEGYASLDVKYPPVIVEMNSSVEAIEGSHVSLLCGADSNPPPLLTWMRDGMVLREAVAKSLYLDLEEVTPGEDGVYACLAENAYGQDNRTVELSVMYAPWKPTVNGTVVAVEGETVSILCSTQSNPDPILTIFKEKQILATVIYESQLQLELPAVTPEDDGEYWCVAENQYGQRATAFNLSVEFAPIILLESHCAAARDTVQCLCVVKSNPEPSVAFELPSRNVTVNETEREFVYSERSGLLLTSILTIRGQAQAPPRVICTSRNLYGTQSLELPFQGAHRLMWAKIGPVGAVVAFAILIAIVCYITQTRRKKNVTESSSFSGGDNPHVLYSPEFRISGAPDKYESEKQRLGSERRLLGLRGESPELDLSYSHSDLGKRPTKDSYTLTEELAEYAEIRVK
Description: Antagonist activity at mouse MAGd1-3Fc domain expressed in CHO-Lec1 cells by fluorescent hapten binding assay relative to (2R,4R,5S,6R)-5-acetamido-6-((1R,2R)-3-benzamido-1,2-dihydroxypropyl)-2-(benzyloxy)-4-hydroxytetrahydro-2H-pyran-2-carboxylate. The format is cell-based.

In assay [2] the target is T2, Myelin-associated glycoprotein (Mus musculus, UniProt P20917).
T2 sequence (P20917 whole entry): T1 sequence (whole entry)
Description: Binding affinity to mouse MAGd1-3Fc domain expressed in CHO-Lec1 cells by surface plasmon resonance. A general note: SPR reads the build-up and loss of mass on a sensor chip optically.

In the case of `CC(=O)N[C@H]1C[C@](OCc2ccccc2)(C(=O)O)C[C@@H](OCCNC(=O)c2ccc(Cl)cc2)[C@@H]1NC(=O)CF`, in assay [1], the Ratio IC50 is 4300. The compound also yielded a Kd in assay [2] greater than 800 µM.

As to `O=C(CF)N[C@H]1[C@H]([C@H](O)[C@H](O)CNC(=O)c2ccc(Cl)cc2)O[C@@](OCc2cccc(F)c2F)(C(=O)O)C[C@@H]1O`, the Ratio IC50 in assay [1] is 0.02. In assay [2], this compound returned a Kd of 0.5 µM.

`CC(=O)N[C@H]1[C@H]([C@H](O)[C@H](O)CNC(=O)c2ccccc2)O[C@@](OCc2ccccc2)(C(=O)O)C[C@@H]1O`: the affinity in assay [2], expressed as Kd, was 26 µM.

As a reminder, the Kd is the concentration at which binding is half-saturated. A low value points to a tighter complex.

(Values after ChEMBL document CHEMBL1250550, “Design, synthesis, biological evaluation, and modeling of a non-carbohydrate antagonist of the myelin-associated glycoprotein” (Bioorg Med Chem, 2010).)
